Reference: US20150307938A1, “METHOD TO IDENTIFY A NOVEL CLASS OF IMMUNOLOGIC ADJUVANTS” (Lancell, L.L.C., priority 2011, published 2015)

System: skin
Assay: Affymetrix microarray of skin, DBP-4 hr and analogs vs. untreated; gene selection by log-2 fold change, Wilcoxon, Kendall tau (Tables 8, 9)
Format: in vivo, mouse

CCCCOC(=O)c1ccccc1C(=O)OCCCC [DBP, dibutylphthalate]
Kendall: Dda1 (gene Dda1, NM_025600_at, gene expression vs. output): Yes | Wilcoxon: Diablo (gene Diablo, NM_023232_at, DBP-4 hr vs. untreated): No | Kendall: Diablo (gene Diablo, NM_023232_at, gene expression vs. output): Yes | Wilcoxon: Dmap1 (gene Dmap1, NM_023178_at, DBP-4 hr vs. untreated): No | Kendall: Dmap1 (gene Dmap1, NM_023178_at, gene expression vs. output): Yes | Wilcoxon: Dnajc4 (gene Dnajc4, NM_020566_at, DBP-4 hr vs. untreated): No | Kendall: Dnajc4 (gene Dnajc4, NM_020566_at, gene expression vs. output): Yes | Wilcoxon: Eid1 (gene Eid1, NM_025613_at, DBP-4 hr vs. untreated): No | Kendall: Eid1 (gene Eid1, NM_025613_at, gene expression vs. output): Yes | Wilcoxon: Eif6 (gene Eif6, NM_010579_at, DBP-4 hr vs. untreated): No | Kendall: Eif6 (gene Eif6, NM_010579_at, gene expression vs. output): Yes | Wilcoxon: Erlec1 (gene Erlec1, NM_025745_at, DBP-4 hr vs. untreated): No | Kendall: Erlec1 (gene Erlec1, NM_025745_at, gene expression vs. output): Yes | Wilcoxon: Fam134b (gene Fam134b, NM_025459_at, DBP-4 hr vs. untreated): No | Kendall: Fam134b (gene Fam134b, NM_025459_at, gene expression vs. output): Yes | Wilcoxon: Fbxo25 (gene Fbxo25, NM_025785_at, DBP-4 hr vs. untreated): No | Kendall: Fbxo25 (gene Fbxo25, NM_025785_at, gene expression vs. output): Yes | Wilcoxon: Fgf13 (gene Fgf13, NM_010200_at, DBP-4 hr vs. untreated): No | Kendall: Fgf13 (gene Fgf13, NM_010200_at, gene expression vs. output): Yes | Wilcoxon: Flt1 (gene Flt1, NM_010228_at, DBP-4 hr vs. untreated): No | Kendall: Flt1 (gene Flt1, NM_010228_at, gene expression vs. output): Yes | Wilcoxon: Fmo5 (gene Fmo5, NM_010232_at, DBP-4 hr vs. untreated): No | Kendall: Fmo5 (gene Fmo5, NM_010232_at, gene expression vs. output): Yes | Wilcoxon: Ftsj3 (gene Ftsj3, NM_025310_at, DBP-4 hr vs. untreated): No | Kendall: Ftsj3 (gene Ftsj3, NM_025310_at, gene expression vs. output): Yes | Wilcoxon: Gcnt2 (gene Gcnt2, NM_023887_at, DBP-4 hr vs. untreated): No | Kendall: Gcnt2 (gene Gcnt2, NM_023887_at, gene expression vs. output): Yes | Wilcoxon: Gmcl1 (gene Gmcl1, NM_011818_at, DBP-4 hr vs. untreated): No | Kendall: Gmcl1 (gene Gmcl1, NM_011818_at, gene expression vs. output): Yes | Wilcoxon: Gpn3 (gene Gpn3, NM_024216_at, DBP-4 hr vs. untreated): No | Kendall: Gpn3 (gene Gpn3, NM_024216_at, gene expression vs. output): Yes | Wilcoxon: Gstz1 (gene Gstz1, NM_010363_at, DBP-4 hr vs. untreated): No | Kendall: Gstz1 (gene Gstz1, NM_010363_at, gene expression vs. output): Yes | Wilcoxon: Gtf2h2 (gene Gtf2h2, NM_022011_at, DBP-4 hr vs. untreated): No | Kendall: Gtf2h2 (gene Gtf2h2, NM_022011_at, gene expression vs. output): Yes | Wilcoxon: Gtf3a (gene Gtf3a, NM_025652_at, DBP-4 hr vs. untreated): No | Kendall: Gtf3a (gene Gtf3a, NM_025652_at, gene expression vs. output): Yes | Wilcoxon: Hsdl2 (gene Hsdl2, NM_024255_at, DBP-4 hr vs. untreated): No | Kendall: Hsdl2 (gene Hsdl2, NM_024255_at, gene expression vs. output): Yes | Wilcoxon: Icos (gene Icos, NM_017480_at, DBP-4 hr vs. untreated): No | Kendall: Icos (gene Icos, NM_017480_at, gene expression vs. output): Yes | Wilcoxon: Ifngr1 (gene Ifngr1, NM_010511_at, DBP-4 hr vs. untreated): No | Kendall: Ifngr1 (gene Ifngr1, NM_010511_at, gene expression vs. output): Yes | Wilcoxon: Inpp5d (gene Inpp5d, NM_010566_at, DBP-4 hr vs. untreated): No | Kendall: Inpp5d (gene Inpp5d, NM_010566_at, gene expression vs. output): Yes | Wilcoxon: Itgax (gene Itgax, NM_021334_at, DBP-4 hr vs. untreated): No | Kendall: Itgax (gene Itgax, NM_021334_at, gene expression vs. output): Yes | Wilcoxon: Itk (gene Itk, NM_010583_at, DBP-4 hr vs. untreated): No | Kendall: Itk (gene Itk, NM_010583_at, gene expression vs. output): Yes | Wilcoxon: Krt17 (gene Krt17, NM_010663_at, DBP-4 hr vs. untreated): No | Kendall: Krt17 (gene Krt17, NM_010663_at, gene expression vs. output): Yes | Wilcoxon: Map3k14 (gene Map3k14, NM_016896_at, DBP-4 hr vs. untreated): No | Kendall: Map3k14 (gene Map3k14, NM_016896_at, gene expression vs. output): Yes | Wilcoxon: Mdp1 (gene Mdp1, NM_023397_at, DBP-4 hr vs. untreated): No | Kendall: Mdp1 (gene Mdp1, NM_023397_at, gene expression vs. output): Yes | Wilcoxon: Meis1 (gene Meis1, NM_010789_at, DBP-4 hr vs. untreated): No | Kendall: Meis1 (gene Meis1, NM_010789_at, gene expression vs. output): Yes | Wilcoxon: Mkrn3 (gene Mkrn3, NM_011746_at, DBP-4 hr vs. untreated): No | Kendall: Mkrn3 (gene Mkrn3, NM_011746_at, gene expression vs. output): Yes | Wilcoxon: Mtcp1 (gene Mtcp1, NM_010839_at, DBP-4 hr vs. untreated): No | Kendall: Mtcp1 (gene Mtcp1, NM_010839_at, gene expression vs. output): Yes | Wilcoxon: Mum1 (gene Mum1, NM_023431_at, DBP-4 hr vs. untreated): No | Kendall: Mum1 (gene Mum1, NM_023431_at, gene expression vs. output): Yes | Wilcoxon: Myd88 (gene Myd88, NM_010851_at, DBP-4 hr vs. untreated): No | Kendall: Myd88 (gene Myd88, NM_010851_at, gene expression vs. output): Yes | Wilcoxon: Nagk (gene Nagk, NM_019542_at, DBP-4 hr vs. untreated): No | Kendall: Nagk (gene Nagk, NM_019542_at, gene expression vs. output): Yes | Wilcoxon: Ndufaf3 (gene Ndufaf3, NM_023247_at, DBP-4 hr vs. untreated): No | Kendall: Ndufaf3 (gene Ndufaf3, NM_023247_at, gene expression vs. output): Yes | Wilcoxon: Nek3 (gene Nek3, NM_011848_at, DBP-4 hr vs. untreated): No | Kendall: Nek3 (gene Nek3, NM_011848_at, gene expression vs. output): Yes | Wilcoxon: Nfkb2 (gene Nfkb2, NM_019408_at, DBP-4 hr vs. untreated): No | Kendall: Nfkb2 (gene Nfkb2, NM_019408_at, gene expression vs. output): Yes | Wilcoxon: Nicn1 (gene Nicn1, NM_025449_at, DBP-4 hr vs. untreated): No | Kendall: Nicn1 (gene Nicn1, NM_025449_at, gene expression vs. output): Yes | Wilcoxon: Nme3 (gene Nme3, NM_019730_at, DBP-4 hr vs. untreated): No | Kendall: Nme3 (gene Nme3, NM_019730_at, gene expression vs. output): Yes | Wilcoxon: Ntpcr (gene Ntpcr, NM_025636_at, DBP-4 hr vs. untreated): No | Kendall: Ntpcr (gene Ntpcr, NM_025636_at, gene expression vs. output): Yes | Wilcoxon: Orc3 (gene Orc3, NM_015824_at, DBP-4 hr vs. untreated): No | Kendall: Orc3 (gene Orc3, NM_015824_at, gene expression vs. output): Yes | Wilcoxon: Padi1 (gene Padi1, NM_011059_at, DBP-4 hr vs. untreated): No | Kendall: Padi1 (gene Padi1, NM_011059_at, gene expression vs. output): Yes | Wilcoxon: Panx1 (gene Panx1, NM_019482_at, DBP-4 hr vs. untreated): No | Kendall: Panx1 (gene Panx1, NM_019482_at, gene expression vs. output): Yes | Wilcoxon: Pfdn2 (gene Pfdn2, NM_011070_at, DBP-4 hr vs. untreated): No | Kendall: Pfdn2 (gene Pfdn2, NM_011070_at, gene expression vs. output): Yes | Wilcoxon: Phtf1 (gene Phtf1, NM_013629_at, DBP-4 hr vs. untreated): No | Kendall: Phtf1 (gene Phtf1, NM_013629_at, gene expression vs. output): Yes
